Laboratory results: patent US20240409536A1, “COMPOUNDS AND METHODS FOR MODULATING SPLICING” (REMIX THERAPEUTICS INC., priority 2021, published 2024)
Where two headings read alike, the source gives them in different places.

Tests used:
[1] = system: HTT mRNA; experiment: Gene panel canonical junction qPCR assay, HTT CJ mRNA decrease; assay type: cell-based, human; conditions: Homo sapiens, decrease in CJ mRNA levels, read-out: HTT IC50
Procedure: (§1) Compounds described herein were used to modulate RNA transcript abundance in cells. The expression of a target mRNA was measured by detecting the formation of an exon-exon junction in the canonical transcript (CJ). A compound mediated exon-inclusion event was detected by observing an increase in formation of a new junction with an alternative exon (AJ). Real-time qPCR assays were used to detect these splicing switches and interrogate the potency of various compounds towards different target genes. A high-throughput real time quantitative PCR (RT-qPCR) assay was developed to measure these two isoforms of the mRNA (CJ and AJ) for exemplary genes, such as HTT, SMN2, and MYB, together with a control housekeeping gene, GAPDH or GUSB or PPIA, used for normalization. Briefly, the A673 or K562 cell line was treated with various compounds described herein (e.g., compounds of Formula (I), (I), or (III)). After treatment, the levels of the HTT, MYB, or SMN2 mRNA targets were determined from each sample of cell lysate by cDNA synthesis followed by qPCR.
(§2) The data analysis was performed by first determining the ΔCt vs the housekeeper gene. This ΔCt was then normalized against the DMSO control (ΔΔCt) and converted to RQ (relative quantification) using the 2^(−ΔΔCt) equation. The RQ were then converted to a percentage response by arbitrarily setting an assay window of 3.5 and 4.0 ΔCt for HTT-CJ and MYB-CJ respectively and an assay window of 9 and 3 ΔCt for HTT-AJ and MYB-AJ in 96 well format (50,000 K562 cells/well and 15,000 A673 cells per well) and an assay window of 3 and 4 ΔCt for HTT-CJ and MYB-CJ respectively and an assay window of 5 and 3 ΔCt for HTT-AJ and MYB-AJ respectively in 384 well format (8,000 K562 cells/well example). […] The percentage response was then fitted to the 4 parametric logistic equation to evaluate the concentration dependence of compound treatment. The increase in AJ mRNA is reported as AC50 (compound concentration having […] in AJ increase) while the decrease in CJ mRNA levels is reported as IC50 (compound concentration having 50) response in CJ decrease).
(§3) Additional studies were carried out for a larger panel of genes using the protocol provided above. The junction between flanking upstream and downstream exons was used to design canonical junction qPCR assays. At least one of the forward primer, reverse primer or the CY5-labeled 5′ nuclease probe (with 3′ quencher such as ZEN/Iowa Black FQ) was designed to overlap with the exon junction to capture the CJ mRNA transcript. BLAST was used to confirm the specificity of the probeset and parameters such as melting temperature, GC content, amplicon size, and primer dimer formation are considered during their design. Data for the decrease in CJ mRNA levels for four exemplary genes (HTT, SMN2, MYB, and Target C) analyzed in this panel are reported as IC50 (compound concentration having […] in CJ decrease).
(§4) A summary of the results from the panel is illustrated in Tables 5A and 51B, wherein “A” represents an IC50 of less than 100 nM; “B” represents an IC50 of between 100 nM and 1 μM; and “C” represents an IC50 of between 1 μM and 10 μM; and “D” represents an IC50 of greater than 10 μM.

[2] = system: MYB mRNA; experiment: Gene panel canonical junction qPCR assay, MYB CJ mRNA decrease; assay type: cell-based, human; conditions: decrease in CJ mRNA levels, read-out: MYB IC50
Procedure: as §1, §2, §3, §4

[3] = system: SMN2 mRNA; experiment: Gene panel canonical junction qPCR assay, SMN2 CJ mRNA decrease; assay type: cell-based, human; conditions: decrease in CJ mRNA levels, read-out: SMN2 IC50
Procedure: as §1, §2, §3, §4

[4] = system: Target C mRNA; experiment: Gene panel canonical junction qPCR assay, Target C CJ mRNA decrease; assay type: cell-based; conditions: Homo sapiens, decrease in CJ mRNA levels, read-out: Target C IC50
Procedure: as §1, §2, §3, §4

| Compound | IC50 [1] [nM] | IC50 ([2]; Homo sapiens) [nM] | IC50 ([3]; Homo sapiens) [µM] | IC50 [4] [nM] | IC50 [2] [nM] | IC50 [3] [µM] |
| --- | --- | --- | --- | --- | --- | --- |
| Cc1cn2nc(NC(=O)c3sc([C@@H]4CCN[C@H](C)C4)cc3F)cc(C)c2n1 [Compound 576] | 100 to 1000 | < 100 | 0.1 to 1 | 100 to 1000 | – | – |
| Cc1cn2cc(NC(=O)c3sc(C4CCNCC4)cc3F)cc(F)c2n1 [Compound 617] | 1000 to 10000 | – | – | 1000 to 10000 | 1000 to 10000 | 1 to 10 |
| Cc1cn2cc(NC(=O)c3sc(N4CCC(N5CCCC5)C4)cc3F)cc(F)c2n1 (stereo not shown) [Compound 609] | 1000 to 10000 | 100 to 1000 | 1 to 10 | 1000 to 10000 | – | – |
| Cc1cn2cc(NC(=O)c3sc(N4CCNC(C)(C)C4)cc3F)cc(F)c2n1 [Compound 604] | > 10000 | 1000 to 10000 | > 10 | > 10000 | – | – |
| Cc1nc2c(F)cc(NC(=O)c3sc(N4CCNC(C)C4)cc3F)cc2o1 (stereo not shown) [Compound 637] | > 10000 | > 10000 | > 10 | > 10000 | – | – |
| Cc1cn2cc(NC(=O)c3sc(N4CC(C)(C)NC(C)(C)C4)cc3F)cc(F)c2n1 [Compound 606] | 1000 to 10000 | 100 to 1000 | > 10 | 1000 to 10000 | – | – |
| Cc1cn2nc(NC(=O)c3sc([C@H]4CCN[C@@H](C)C4)cc3F)cc(C)c2n1 [Compound 577] | 100 to 1000 | 100 to 1000 | 1 to 10 | 100 to 1000 | – | – |
| Cc1cn2cc(NC(=O)c3sc(N4CCC(N(C)C)C4)cc3F)cc(F)c2n1 (stereo not shown) [Compound 611] | > 10000 | 100 to 1000 | > 10 | 1000 to 10000 | – | – |
| CCN1CCC(c2cc(F)c(C(=O)Nc3cc(F)c4nc(C)cn4c3)s2)CC1 [Compound 619] | 100 to 1000 | < 100 | 0.1 to 1 | 100 to 1000 | – | – |
| Cc1cn2cc(-c3cc(F)c(C(=O)N[C@H]4CCN[C@H](C)C4)s3)nc2c(C)n1 [Compound 583] | > 10000 | 1000 to 10000 | > 10 | > 10000 | – | – |
| Cc1cn2cc(NC(=O)c3sc(N4CCNC(C)C4)cc3F)nc2c(C)n1 (stereo not shown) [Compound 641] | > 10000 | 1000 to 10000 | > 10 | > 10000 | – | – |
| Cc1cn2cc(NC(=O)c3sc(C4CC(C)(C)NC(C)(C)C4)cc3F)cc(F)c2n1 [Compound 621] | 100 to 1000 | 100 to 1000 | 1 to 10 | 1000 to 10000 | – | – |
| Cc1cn2cc(NC(=O)c3sc(N4CCC(N(C)C)CC4)cc3F)cc(F)c2n1 [Compound 613] | 1000 to 10000 | 100 to 1000 | > 10 | > 10000 | – | – |
| Cc1cn2cc(NC(=O)c3sc(N(C)C4CC(C)(C)NC(C)(C)C4)cc3F)cc(F)c2n1 [Compound 622] | 100 to 1000 | < 100 | 1 to 10 | 100 to 1000 | – | – |
| CC1CC(c2cc(F)c(C(=O)Nc3cc(F)c4cn(C)nc4c3)s2)CCN1 (stereo not shown) [Compound 625] | 1000 to 10000 | 1000 to 10000 | 1 to 10 | 1000 to 10000 | – | – |
| Cc1cn2nc(NC(=O)c3sc([C@@H]4CCN[C@@H](C)C4)cc3F)cc(C)c2n1 [Compound 579] | < 100 | < 100 | 0.1 to 1 | 100 to 1000 | – | – |
| Cc1cn2cc(NC(=O)c3sc(N4CCC(NC(C)(C)C)CC4)cc3F)cc(F)c2n1 [Compound 614] | > 10000 | 1000 to 10000 | > 10 | > 10000 | – | – |
| Cc1cn2cc(NC(=O)c3sc(N4CC5(CNC5)C4)cc3F)cc(F)c2n1 [Compound 607] | > 10000 | 1000 to 10000 | > 10 | 1000 to 10000 | – | – |
| Cc1cn2nc(NC(=O)c3sc([C@H]4CCN[C@H](C)C4)cc3F)cc(C)c2n1 [Compound 578] | 100 to 1000 | < 100 | 1 to 10 | 1000 to 10000 | – | – |
| Cc1cn2cc(NC(=O)c3sc(N4CCNC(C)C4)cc3F)ncc2n1 (stereo not shown) [Compound 640] | > 10000 | 100 to 1000 | 0.1 to 1 | 1000 to 10000 | – | – |
| Cc1cn2cc(NC(=O)c3sc([C@@H]4CCN[C@H](C)C4)cc3F)cc(F)c2n1 [Compound 589] | 100 to 1000 | < 100 | 1 to 10 | 1000 to 10000 | – | – |
| Cc1cn2cc(NC(=O)c3sc([C@@H]4CCN[C@@H](C)C4)cc3F)cc(F)c2n1 [Compound 591] | 100 to 1000 | < 100 | 1 to 10 | 100 to 1000 | – | – |
| Cc1cn2cc(NC(=O)c3sc(N4CCN(C)C(C)C4)cc3F)cc(F)c2n1 (stereo not shown) [Compound 602] | > 10000 | 100 to 1000 | > 10 | > 10000 | – | – |
| CC1CC(c2cc(F)c(C(=O)Nc3ccc4cn(C)nc4c3)s2)CCN1 (stereo not shown) [Compound 624] | > 10000 | 100 to 1000 | > 10 | 1000 to 10000 | – | – |

Now from value to compound:

| IC50 [1] [nM] | IC50 ([2]; Homo sapiens) [nM] | IC50 ([3]; Homo sapiens) [µM] | IC50 [4] [nM] | IC50 [2] [nM] | IC50 [3] [µM] | Compound |
| --- | --- | --- | --- | --- | --- | --- |
| > 10000 | 100 to 1000 | > 10 | > 10000 | – | – | Cc1cn2nc(NC(=O)c3sc(N4CCNC(C)C4)cc3F)nc2c(C)n1 (stereo not shown) [Compound 642] |
| > 10000 | > 10000 | > 10 | > 10000 | – | – | Cc1cn2cc(NC(=O)c3sc(C4CCNCC4)c(Cl)c3Cl)cc(F)c2n1 [Compound 648] |
| 100 to 1000 | < 100 | 1 to 10 | 1000 to 10000 | – | – | Cc1cn2cc(NC(=O)c3cc(Cl)c(N4CCNC(C)C4)s3)cc(F)c2n1 (stereo not shown) [Compound 660] |
| 100 to 1000 | 100 to 1000 | 1 to 10 | 1000 to 10000 | – | – | Cc1cn2cc(NC(=O)c3sc(N4CCNC(C)C4)c(Cl)c3Cl)cc(F)c2n1 (stereo not shown) [Compound 659] |
| > 10000 | > 10000 | > 10 | > 10000 | – | – | CC1=NC2C(F)=CC(NC(=O)c3sc(C4CCNCC4)cc3F)=CC2O1 (stereo not shown) [Compound 657] |
| > 10000 | 1000 to 10000 | > 10 | > 10000 | – | – | Cc1cn2cc(NC(=O)c3ccc(C4CCNCC4)s3)cc(F)c2n1 [Compound 647] |
| 100 to 1000 | 100 to 1000 | > 10 | 1000 to 10000 | – | – | Cc1cn2cc(NC(=O)c3sc(C4CCNCC4)cc3Cl)cc(F)c2n1 [Compound 663] |
| > 10000 | > 10000 | > 10 | > 10000 | – | – | CC1=NC2C(F)=CC(NC(=O)c3sc(C4CCNCC4)cc3F)=CC2S1 (stereo not shown) [Compound 658] |
| < 100 | < 100 | 1 to 10 | 100 to 1000 | – | – | Cc1cn2nc(NC(=O)c3sc(C4CCNCC4)cc3F)nc2c(C)n1 [Compound 665] |
| > 10000 | > 10000 | > 10 | > 10000 | – | – | COc1cc(N2CCNCC2=O)sc1C(=O)Nc1cc(F)c2nc(C)cn2c1 [Compound 662] |
